Experiments:
Format in all cases: in vitro ADME
[1] = target: T1, CYP2A6 (Homo sapiens, UniProt P11509); assay: CYP2A6 coumarin 7-hydroxylase inhibition in pooled human liver microsomes (substrate cocktail, LC-MS/MS); settings: at 50 µM
T1 construct: pooled human liver microsomes (0.2 mg/mL); tissue Corning Life Sciences; host or cells: pooled human liver microsomes (150 donors)
T1 sequence (P11509 1-494): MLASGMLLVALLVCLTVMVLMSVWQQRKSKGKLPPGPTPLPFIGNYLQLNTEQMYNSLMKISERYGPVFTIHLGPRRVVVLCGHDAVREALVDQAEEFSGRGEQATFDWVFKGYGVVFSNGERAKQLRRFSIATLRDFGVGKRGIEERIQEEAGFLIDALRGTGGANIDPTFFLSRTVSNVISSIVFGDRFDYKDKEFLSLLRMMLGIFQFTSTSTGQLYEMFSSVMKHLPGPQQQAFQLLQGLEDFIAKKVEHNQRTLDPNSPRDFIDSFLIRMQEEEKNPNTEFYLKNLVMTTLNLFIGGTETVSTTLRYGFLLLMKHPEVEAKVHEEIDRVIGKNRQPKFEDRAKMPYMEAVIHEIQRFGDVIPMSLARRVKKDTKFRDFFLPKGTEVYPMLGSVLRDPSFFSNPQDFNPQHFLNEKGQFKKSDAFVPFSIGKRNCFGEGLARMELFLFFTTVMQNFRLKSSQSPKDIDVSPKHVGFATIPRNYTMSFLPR
Experimental: (§1) After a 3-min pre-incubation at 37 °C, the reactions were initiated by addition of NADPH and incubation proceeded for 15 min at 37 °C in a shaking water bath. […] The incubation mixtures were centrifuged (13,000× g, 4 min, 4 °C). All assays were performed in triplicate and mean values were used in calculations.
(§2) Each reaction was initiated by adding the seven-CYP probe substrate cocktail.
(§3) The metabolites formed from CYP substrates were quantified simultaneously by a LC-MS/MS method described previously. The ESI source settings in positive-ion mode for metabolite ionization were: capillary voltage, 4200 V; vaporizer temperature, 350 °C; capillary temperature, 330 °C; sheath gas pressure, 35 psi; and auxiliary gas pressure, 15 psi. […] Analytical data were processed using Xcalibur software (version 2.1, Thermo Scientific).
(§4) The apparent kinetic parameters for inhibitory potential (Ki and kinact values) and inhibition mode were estimated from the fitted curves using the Enzyme Kinetics program (ver. 1.1; Systat Software Inc., San Jose, CA, USA).

[2] = target: T2, UGT1A4 (Homo sapiens, UniProt P22310); assay: UGT1A4 trifluoperazine N-glucuronidation inhibition in human liver microsomes; settings: at 50 µM
T2 construct: pooled human liver microsomes (0.2 mg/mL), 5 mM UDPGA; tissue Corning Life Sciences; host or cells: pooled human liver microsomes (150 donors)
T2 sequence (P22310 29-534): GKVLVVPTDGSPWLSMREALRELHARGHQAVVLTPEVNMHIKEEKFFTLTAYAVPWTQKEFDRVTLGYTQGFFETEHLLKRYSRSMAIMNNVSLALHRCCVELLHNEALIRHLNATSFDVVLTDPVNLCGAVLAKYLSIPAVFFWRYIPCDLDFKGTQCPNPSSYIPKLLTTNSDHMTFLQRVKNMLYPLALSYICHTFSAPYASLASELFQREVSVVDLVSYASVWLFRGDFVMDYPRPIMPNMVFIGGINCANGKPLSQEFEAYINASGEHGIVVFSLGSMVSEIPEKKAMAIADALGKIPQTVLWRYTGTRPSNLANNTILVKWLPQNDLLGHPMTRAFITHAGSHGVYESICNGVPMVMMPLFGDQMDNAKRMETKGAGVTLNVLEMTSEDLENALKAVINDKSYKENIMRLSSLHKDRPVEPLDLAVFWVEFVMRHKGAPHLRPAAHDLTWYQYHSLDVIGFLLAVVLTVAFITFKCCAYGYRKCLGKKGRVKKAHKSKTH
Experimental: (§5) After 3 min of pre-incubation at 37 °C, the reactions were initiated by addition of UDPGA; incubation continued for 60 min at 37 °C in a shaking water bath. The reaction was stopped by placing the tubes on ice and adding 50 µL ice-cold acetonitrile containing internal standards (propofol glucuronide for chenodeoxycholic acid 24-acyl-β-glucuronide and mycophenolic acid glucuronide, and meloxicam for SN-38 glucuronide, trifluoperazine glucuronide, N-acetylserotonin β-D-glucuronide, and naloxone 3-β-D-glucuronide). The incubation mixtures were centrifuged (13,000× g, 4 min, 4 °C). All assays were performed in triplicate and average values were used in calculations.
(§6) The metabolites formed from the six UGT cocktail substrates were measured simultaneously using the LC-MS/MS method. The ESI source settings in both positive- and negative-ion modes for metabolite ionization were: capillary voltage, 4200 V; vaporizer temperature, 350 °C; capillary temperature, 330 °C; sheath gas pressure, 35 psi; and auxiliary gas pressure, 15 psi. […] Data were processed using Xcalibur software.
as §4

[3] = target: T3, UGT1A3 (Homo sapiens, UniProt P35503); assay: UGT1A3 chenodeoxycholic acid 24-acyl-glucuronidation inhibition in human liver microsomes
T3 construct: tissue Corning Life Sciences; host or cells: pooled human liver microsomes (150 donors)
T3 sequence (P35503 29-534): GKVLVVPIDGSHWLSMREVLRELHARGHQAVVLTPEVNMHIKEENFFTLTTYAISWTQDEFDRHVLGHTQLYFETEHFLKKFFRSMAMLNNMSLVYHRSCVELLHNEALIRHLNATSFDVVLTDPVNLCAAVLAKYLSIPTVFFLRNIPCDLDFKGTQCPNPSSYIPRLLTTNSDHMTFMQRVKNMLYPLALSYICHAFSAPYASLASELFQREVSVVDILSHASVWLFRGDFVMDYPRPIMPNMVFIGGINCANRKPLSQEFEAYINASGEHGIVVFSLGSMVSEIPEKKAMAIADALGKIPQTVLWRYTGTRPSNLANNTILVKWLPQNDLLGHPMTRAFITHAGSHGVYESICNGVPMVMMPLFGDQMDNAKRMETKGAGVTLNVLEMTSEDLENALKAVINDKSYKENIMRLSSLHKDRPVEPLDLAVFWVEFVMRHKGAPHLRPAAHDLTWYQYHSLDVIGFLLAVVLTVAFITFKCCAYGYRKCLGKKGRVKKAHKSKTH
Experimental: as §5
The reactions were initiated by addition of UDPGA at 37 °C and stopped after 60 min by placing the incubation tubes on ice and adding 100 μL of ice-cold methanol containing propofol glucuronide (internal standard for UGT1A3) or meloxicam (internal standard for UGT2B7). The incubation mixtures were centrifuged (13,000× g, 4 min, 4 °C), and then, 50 μL of the supernatant was diluted with 50 μL of water. Aliquots (5 μL) of the diluted supernatants were analyzed by LC-MS/MS.
as §6, §4

[4] = target: T4, CYP2C19 (Homo sapiens, UniProt P33261); assay: CYP2C19 [S]-mephenytoin 4′-hydroxylase inhibition in human liver microsomes; settings: at 50 µM
T4 construct: pooled human liver microsomes (0.2 mg/mL); tissue Corning Life Sciences; host or cells: pooled human liver microsomes (150 donors)
Experimental: as §1, §2, §3, §4

T4 sequence (P33261 whole entry): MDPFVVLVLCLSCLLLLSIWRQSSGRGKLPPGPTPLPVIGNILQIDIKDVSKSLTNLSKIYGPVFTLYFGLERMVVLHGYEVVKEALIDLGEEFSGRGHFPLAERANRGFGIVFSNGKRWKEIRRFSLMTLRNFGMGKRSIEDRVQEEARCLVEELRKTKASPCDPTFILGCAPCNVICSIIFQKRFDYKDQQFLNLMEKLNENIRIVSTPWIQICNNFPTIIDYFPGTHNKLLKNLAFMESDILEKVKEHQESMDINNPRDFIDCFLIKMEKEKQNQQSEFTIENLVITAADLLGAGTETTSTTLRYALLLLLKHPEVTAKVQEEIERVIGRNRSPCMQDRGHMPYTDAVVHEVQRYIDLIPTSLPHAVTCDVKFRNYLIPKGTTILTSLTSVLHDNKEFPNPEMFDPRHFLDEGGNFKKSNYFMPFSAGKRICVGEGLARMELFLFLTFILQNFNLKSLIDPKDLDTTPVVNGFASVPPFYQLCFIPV

## O=C(c1cccc2ccccc12)c1cn(CCCCCF)c2ccccc12 [AM-2201, 1-(5-fluoropentyl-1H-indol-3-yl)-(naphthalene-1-yl)methanone]
[1]
  inhibition of CYP2A6-mediated coumarin 7-hydroxylation: negligibly inhibited
[2]
  inhibition of UGT1A4-catalyzed trifluoperazine N-glucuronidation: negligibly inhibited
[3]
  Ki: 4.3 µM
[3]; IC50, UGT1A3-catalyzed chenodeoxycholic acid 24-acyl-glucuronidation, abstract
  IC50: 4.3 µM
[3]; IC50, UGT1A3 chenodeoxycholic acid 24-acyl-glucuronidation, 2 μM chenodeoxycholic acid, human liver microsomes
  IC50: 6.4 µM
[3]; UGT1A3 chenodeoxycholic acid 24-acyl-glucuronidation
  Inhibition Mode: competitively inhibited
[4]
  inhibition of CYP2C19-mediated [S]-mephenytoin 4′-hydroxylation: negligibly inhibited

From publication PMC6155437 (Molecules : A Journal of Synthetic Chemistry and Natural …, 2017)
